Activity calls are given as the source filed them. The calls are words filed in the database; no cut-off is given here.
What was measured:
[1] = system: Eca-109/VCR; test: Antiproliferative activity against human Eca-109/VCR cells assessed as cell viability at 5 uM incubated for 48 hrs by CCK-8 assay (reference value: 100 +/- 1.8%); assay type: functional; conditions: read-out: Activity
[2] = system: Eca-109/VCR; test: Reversal of vincristine resistance in human Eca-109/VCR cells assessed as reversal fold by measuring ratio of vincristine IC50 to vincristine IC50 in presence of test compound at 5 uM incubated for 48 hrs by CCK8 assay; assay type: functional
[3] = system: Eca-109/VCR; test: Inhibition of colony formation in human Eca-109/VCR cells at 0 to 12 nM incubated for 48 hrs by crystal violet staining based assay; assay type: functional, cell-based; conditions: dose 0-12 nM
[4] = system: Eca-109/VCR; test: Reversal of vincristine resistance in human Eca-109/VCR cells assessed as reduction in cell viability incubated for 48 hrs by CCK-8 assay; assay type: functional, cell-based
[5] = system: ECa-109 cell line; test: Antiproliferative activity against human Eca-109 cells assessed as reduction in cell viability incubated for 48 hrs by CCK-8 assay; assay type: functional, cell-based; conditions: ECa-109, 48 h
[6] = system: Eca-109/VCR; test: Induction of apoptosis in human Eca-109/VCR cells assessed as viable cells at 5 uM incubated for 48 hrs by Annexin V-FITC/DAPI staining based flow cytometry analysis (reference value: 94.6 %); assay type: functional; conditions: read-out: Activity
[7] = system: Eca-109/VCR; test: Induction of apoptosis in human Eca-109/VCR cells assessed as early apoptotic cells at 5 uM incubated for 48 hrs by Annexin V-FITC/DAPI staining based flow cytometry analysis (reference value: 0.97 %); assay type: functional
[8] = system: Eca-109/VCR; test: Induction of apoptosis in human Eca-109/VCR cells assessed as late apoptotic cells at 5 uM incubated for 48 hrs by Annexin V-FITC/DAPI staining based flow cytometry analysis (reference value: 4.31 %); assay type: functional
[9] = system: Eca-109/VCR; test: Induction of apoptosis in human Eca-109/VCR cells assessed as necrotic cells at 5 uM incubated for 48 hrs by Annexin V-FITC/DAPI staining based flow cytometry analysis (reference value: 0.073 %); assay type: functional
[10] = system: Eca-109/VCR; test: Induction of apoptosis in human Eca-109/VCR cells assessed as viable cells at 5 uM incubated for 48 hrs in presence of vincristine at 50 nM by Annexin V-FITC/DAPI staining based flow cytometry analysis (reference value: 93.5 %); assay type: functional; conditions: read-out: Activity
[11] = system: Eca-109/VCR; test: Induction of apoptosis in human Eca-109/VCR cells assessed as early apoptotic cells at 5 uM incubated for 48 hrs in presence of vincristine at 50 nM by Annexin V-FITC/DAPI staining based flow cytometry analysis (reference value: 1.33 %); assay type: functional
[12] = system: Eca-109/VCR; test: Induction of apoptosis in human Eca-109/VCR cells assessed as late apoptotic cells at 5 uM incubated for 48 hrs in presence of vincristine at 50 nM by Annexin V-FITC/DAPI staining based flow cytometry analysis (reference value: 5.06 %); assay type: functional
[13] = system: Eca-109/VCR; test: Induction of apoptosis in human Eca-109/VCR cells assessed as necrotic cells at 5 uM incubated for 48 hrs in presence of vincristine at 50 nM by Annexin V-FITC/DAPI staining based flow cytometry analysis (reference value: 0.062 %); assay type: functional
[14] = system: Eca-109/VCR; test: Antiproliferative activity against human Eca-109/VCR cells assessed as reduction in cell viability at 10 uM incubated for 48 hrs by CCK-8 assay; assay type: functional, cell-based

SMILES | viability at 5 µM [1] [%] | Ratio IC50 [2] | other results
CCOC(=O)C1C2c3ccc([N+](=O)[O-])cc3C(=O)C2C(c2ccccc2)C12C(=O)N(C)c1ccc(OC)cc12 (stereo not given) | 99.4 | 16.4 | 
CCOC(=O)C1C2c3ccc([N+](=O)[O-])cc3C(=O)C2C(c2ccccc2)C12C(=O)N(C)c1ccccc12 (stereo not given) | 102 | 86.8 | 
CCOC(=O)C1C2c3ccc([N+](=O)[O-])cc3C(=O)C2C(c2ccccc2)C12C(=O)N(C)c1c(C)cccc12 (stereo not given) | 102 | 38.9 | 
CCOC(=O)C1C2c3ccc(Br)cc3C(=O)C2C(c2ccccc2)C12C(=O)N(C)c1ccccc12 (stereo not given) | 100 | 16.7 | 
CCOC(=O)C1C2c3ccc([N+](=O)[O-])cc3C(=O)C2C(c2ccc(Br)cc2)C12C(=O)N(C)c1ccccc12 (stereo not given) | 85.1 | 11.7 | 
O=C1c2cc([N+](=O)[O-])ccc2C2C1C(c1ccccc1)C1(Oc3ccccc3C1=O)C2c1ccccc1 (stereo not given) | 99.1 | 15.2 | 
CN1C(=O)C2(c3ncccc31)C(C(=O)OC(C)(C)C)C1c3ccc([N+](=O)[O-])cc3C(=O)C1C2c1ccccc1 (stereo not given) | 104 | 33.6 | 
CCOC(=O)C1C2c3ccc([N+](=O)[O-])cc3C(=O)C2C(c2ccc(C)cc2)C12C(=O)N(C)c1ccccc12 (stereo not given) | 102 | 24.7 | 
CCOC(=O)C1C2c3ccc(-n4cc(-c5ccccc5)nn4)cc3C(=O)C2C(c2ccccc2)C12C(=O)N(C)c1ccccc12 (stereo not given) | 98.9 | 56.1 | 
CCOC(=O)C1C2c3ccc([N+](=O)[O-])cc3C(=O)C2C(c2ccco2)C12C(=O)N(C)c1ccccc12 (stereo not given) | 102 | 12.7 | 
CC[C@]1(O)C[C@H]2CN(CCc3c([nH]c4ccccc34)[C@@](C(=O)OC)(c3cc4c(cc3OC)N(C=O)[C@H]3[C@@](O)(C(=O)OC)[C@H](OC(C)=O)[C@]5(CC)C=CCN6CC[C@]43[C@@H]65)C2)C1 |  |  | inhibition [3]: inactive
CCOC(=O)C1C2c3ccc([N+](=O)[O-])cc3C(=O)C2C(c2ccccc2Br)C12C(=O)N(C)c1ccccc12 (stereo not given) | 96.4 | 1.8 | 
CCOC(=O)C1C2c3ccc([N+](=O)[O-])cc3C(=O)C2C(c2cccc(OC)c2)C12C(=O)N(C)c1ccccc12 (stereo not given) | 99.7 | 3 | 
COC(=O)C1C(C(=O)c2ccccc2)C(c2ccccc2)C2C(=O)c3cc([N+](=O)[O-])ccc3C12 (stereo not given) | 75.2 | 12.3 | 
CS(=O)(=O)CCNCc1ccc(-c2ccc3ncnc(Nc4ccc(OCc5cccc(F)c5)c(Cl)c4)c3c2)o1 [LAPATINIB] |  |  | IC50 [4]: 6.69 µM; IC50 [5]: 9.16 µM
CCOC(=O)C1C2c3ccc([N+](=O)[O-])cc3C(=O)C2C(c2ccccc2)C12C(=O)N(C)c1c(C)cc(C)cc12 (stereo not given) | 89.7 | 2.3 | 
COc1cc2c(cc1OC)CN(CCc1ccc(NC(=O)c3cc(OC)c(OC)cc3NC(=O)c3cnc4ccccc4c3)cc1)CC2 [TARIQUIDAR] | 84.8 | 364.3 | viability at 5 µM [6]: 92.3%; Activity [7]: 4.28%; Activity [8]: 3.35%; Activity [9]: 0.1%; viability at 5 µM [10]: 79%; Activity [11]: 13.8%; Activity [12]: 6.59%; Activity [13]: 0.68%
CC(=O)O[C@@]12CO[C@@H]1C[C@H](O)[C@@]1(C)C(=O)[C@H](O)C3=C(C)[C@@H](OC(=O)[C@H](O)[C@@H](NC(=O)OC(C)(C)C)c4ccccc4)C[C@@](O)([C@@H](OC(=O)c4ccccc4)[C@H]21)C3(C)C [DOCETAXEL ANHYDROUS] |  |  | IC50 [4]: 9.73 µM; IC50 [5]: 0.773 µM
COc1ccc(CCN(C)CCCC(C#N)(c2ccc(OC)c(OC)c2)C(C)C)cc1OC (stereo not given) [VERAPAMIL] | 98.9 | 107.9 | viability at 5 µM [6]: 94%; Activity [7]: 2.86%; Activity [8]: 3.05%; Activity [9]: 0.049%; viability at 5 µM [10]: 83.6%; Activity [11]: 12.1%; Activity [12]: 3.93%; Activity [13]: 0.32%
O=C1c2cc([N+](=O)[O-])ccc2C2C1C(c1ccccc1)C(C(=O)c1ccccc1)C2C(F)(F)F (stereo not given) | 56.3 |  | 

SMILES | viability at 5 µM [1] [%] | Ratio IC50 [2] | other results
CCOC(=O)C1C2c3ccc([N+](=O)[O-])cc3C(=O)C2C(c2ccccc2)C12C(=O)N(C)c1cc(OC)ccc12 (stereo not given) | 90.5 | 53.2 | 
CN1C(=O)C2(c3cc(Cl)ccc31)C(C(=O)OC(C)(C)C)C1c3ccc([N+](=O)[O-])cc3C(=O)C1C2c1ccccc1 (stereo not given) | 98.2 | 388.1 | 
COc1cc2c(c(OC)c1OC)-c1ccc(OC)c(=O)cc1[C@@H](NC(C)=O)CC2 [COLCHICINE] |  |  | IC50 [4]: 3.63 µM; IC50 [5]: 0.012 µM
CCOC(=O)C1C2c3ccc([N+](=O)[O-])cc3C(=O)C2C(c2ccc(C(F)(F)F)cc2)C12C(=O)N(C)c1ccccc12 (stereo not given) | 97.9 | 39.2 | 
CN1C(=O)C2(c3ccccc31)C(C(=O)OC(C)(C)C)C1c3ccc([N+](=O)[O-])cc3C(=O)C1C2c1ccccc1 (stereo not given) | 103 | 56.1 | 
CCOC(=O)C1C2c3ccc([N+](=O)[O-])cc3C(=O)C2C(C2CC2)C12C(=O)N(C)c1ccccc12 (stereo not given) | 96.2 | 2.5 | 
COc1cccc2c1C(=O)c1c(O)c3c(c(O)c1C2=O)C[C@@](O)(C(=O)CO)C[C@@H]3O[C@H]1C[C@H](N)[C@H](O)[C@H](C)O1 [DOXORUBICIN] |  |  | IC50 [4]: 20.2 µM; IC50 [5]: 2.07 µM
CCOC(=O)C1C2c3c(cccc3[N+](=O)[O-])C(=O)C2C(c2ccccc2)C12C(=O)N(C)c1ccccc12 (stereo not given) | 102 | 10.5 | 
O=C1c2c(O)ccc(O)c2C(=O)c2c(NCCNCCO)ccc(NCCNCCO)c21 [MITOXANTRONE] |  |  | IC50 [4]: 5.87 µM; IC50 [5]: 0.646 µM
CCOC(=O)C1C2c3ccc([N+](=O)[O-])cc3C(=O)C2C(c2ccccc2C)C12C(=O)N(C)c1ccccc12 (stereo not given) | 92.2 | 14.7 | 
CCOC(=O)C1C2c3ccc([N+](=O)[O-])cc3C(=O)C2C(c2cccc(C)c2)C12C(=O)N(C)c1ccccc12 (stereo not given) | 102 | 56.7 | 
CN1C(=O)C2(c3cc(Br)ccc31)C(C(=O)OC(C)(C)C)C1c3ccc([N+](=O)[O-])cc3C(=O)C1C2c1ccccc1 (stereo not given) | 105 | 2.9 | 
CN1C(=O)C2(c3cc(Cl)ccc31)C(C(=O)NC(C)(C)C)C1c3ccc([N+](=O)[O-])cc3C(=O)C1C2c1ccccc1 (stereo not given) | 97.5 | 659.1 | 
CN1C(=O)C2(c3cccc(Br)c31)C(C(=O)OC(C)(C)C)C1c3ccc([N+](=O)[O-])cc3C(=O)C1C2c1ccccc1 (stereo not given) | 99.8 | 38.6 | 
O=C1c2cc([N+](=O)[O-])ccc2C2C1C(c1ccccc1)C([N+](=O)[O-])C2c1ccccc1 (stereo not given) | 78.2 | 49.9 | 
CN1C(=O)[C@@]2(c3cc(Cl)ccc31)[C@H](c1ccccc1)[C@H]1C(=O)c3cc([N+](=O)[O-])ccc3[C@H]1[C@@H]2C(=O)NC(C)(C)C | 96.7 | 471.3 | Activity [14]: inactive
O=C1c2cc([N+](=O)[O-])ccc2C2C1C(c1ccccc1)C1(C(=O)c3ccccc3C1=O)C2c1ccccc1 (stereo not given) | 96.6 | 57.1 | 
O=C1c2cc([N+](=O)[O-])ccc2C2C1C(c1ccccc1)C1(Cc3ccccc3C1=O)C2c1ccccc1 (stereo not given) | 85.2 | 34.8 | 
CCOC(=O)C1C2c3ccc([N+](=O)[O-])cc3C(=O)C2C(c2ccccc2)C12C(=O)N(C)c1ccc(OC(F)(F)F)cc12 (stereo not given) | 91.9 | 1.7 | 
CN1C(=O)C2(c3cc(F)ccc31)C(C(=O)OC(C)(C)C)C1c3ccc([N+](=O)[O-])cc3C(=O)C1C2c1ccccc1 (stereo not given) | 101 | 6.6 | 

From ChEMBL document CHEMBL5532696, “Discovery of new tricyclic spiroindole derivatives as potent P-glycoprotein inhibitors for reversing multidrug resistance enabled by a synthetic methodology-based library” (RSC Med Chem, 2024)
